Assay results reported in paper PMC9061853, “Luminescent bis(benzo[d]thiazolyl)quinoxaline: facile synthesis, nucleic acid and protein BSA interaction, live-cell imaging, biopharmaceutical research and cancer theranostic application” (RSC Advances, 2019).

Key:
CT-DNA = assay: Ethidium bromide displacement assay (fluorescence); format: binding
Method: DNA is one of the key target for cancer therapy. The drug molecules bind with the DNA by three major modes (i) electrostatic interactions with the DNA double helix (ii) binding to grooves of DNA (iii) intercalation between the base pairs of DNA.[25] The titration in UV was performed by increasing concentration of DNA from 10–60 μM into a fixed drug concentration (20 μM). The intra-ligand absorption bands around 290–350 nm (π–π* transition) were used in observation of the interaction of DNA and compound 7e (Fig. S3a ^†). There was a hypochromic shift with a slight blue shift in the wavelength of compound 7e was observed which concluded that complex 7e bind to DNA through intercalative binding mode.[26] […] Ethidium bromide, a nonspecific intercalator, gives a strong fluorescence while intercalating DNA base pairs. This enhanced fluorescence can be quenched by another chemical moiety which can competitively replace EtBr and binds to the same site.[27] […] The original fluorescence intensity of EtBr–DNA complex is rapidly quenched by increasing the concentration of compound 7e (Fig. S3c ^†). […]
EtBr displacement is periodically used as a diagnostic approach to determine the capability of compounds to bind with DNA [4]. EtBr emits intense fluorescence when it intercalates with CT-DNA, whereas in its free form in buffer (5 mM Tris-HCl/50mM NaCl buffer, pH 7.4) there is no apparent florescence emission. […] The binding capacity of drug complex with CT-DNA was estimated by quenching of fluorescence intensity. […]
Κapp ×[Complex]50 = ΚEtBr ×[EtBr ](3) where Kapp is the apparent binding constant of the complex, [Complex]50 is the concentration of the complex at 50% fluorescence quenching of DNA-bound ethidium bromide, KEB is the binding constant of the EB (KEtBr = 1.0 x 107 M-1), and [EB] is the concentration of ethidium bromide (8 μM). The Stern-Volmer quenching constant (K SV) has been determined quantitatively by using Stern-Volmer equation. Stern-Volmer plots of I0/I vs. [complex] were made using the corrected fluorescence data taking into account the effect of dilution. […]

BSA = target: T1, BSA (Bos taurus, UniProt P02769); assay: BSA binding study (tryptophan emission quenching); set-up: species or system bovine
T1 construct: purchased Himedia Chemical Limited
T1 sequence (P02769 25-607): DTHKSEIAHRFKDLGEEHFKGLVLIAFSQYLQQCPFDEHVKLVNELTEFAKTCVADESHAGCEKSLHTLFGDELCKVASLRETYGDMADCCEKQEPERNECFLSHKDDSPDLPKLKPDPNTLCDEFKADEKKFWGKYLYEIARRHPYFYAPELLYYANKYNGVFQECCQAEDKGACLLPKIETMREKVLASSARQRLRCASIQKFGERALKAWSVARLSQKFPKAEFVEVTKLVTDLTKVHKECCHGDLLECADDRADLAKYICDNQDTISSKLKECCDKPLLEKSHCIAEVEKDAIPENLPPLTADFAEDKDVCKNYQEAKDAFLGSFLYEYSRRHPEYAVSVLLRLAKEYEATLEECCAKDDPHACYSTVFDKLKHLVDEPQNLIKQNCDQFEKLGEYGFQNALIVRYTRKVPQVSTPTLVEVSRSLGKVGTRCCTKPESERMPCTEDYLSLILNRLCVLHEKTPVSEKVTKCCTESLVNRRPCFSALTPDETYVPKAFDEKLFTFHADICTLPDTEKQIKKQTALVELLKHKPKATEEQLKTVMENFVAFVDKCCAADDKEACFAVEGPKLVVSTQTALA
Method: Serum albumin has the capacity to bind with the ligands and helps in the uptake of the drug inside the cells. BSA is commonly used in this study because of its similar structural homology to HSA. […] A significant quenching of BSA fluorescence can be observed upon interaction with drug molecule.[27] The BSA solution of 3 μM concentration was titrated against 10–100 μM of the drug 7e upon excitation of 280 nm. […] The Stern–Volmer constant (KBSA), quenching constant (Kq), binding constant (K), a number of binding sites (n) were calculated from the eqn (5) and (6) (Fig. S4b and c ^†). The Kq values of the newly synthesized compounds were in the order of 10^12 M^−1 s^−1 which were higher enough than maximum scatter collision quenching constant (2.0 × 10^10 M^−1 s^−1) of BSA quenchers (Table 2).[28] High potency of these complexes in cancer cells may be attributed by the strong binding with serum albumin which overcomes the drug resistance by GSH. […]
BSA is a carrier protein that increases solubility of the drug in the blood by binding to it.
Fluorescence spectroscopy is an efficient method to study the interaction of the BSA with the compound by quenching mechanism. The binding of the complexes to the bovine serum albumin (BSA) were measured by tryptophan emission quenching study. The complex […]
solutions (0-60 μM) were gradually added to the solution of BSA (2 μM) in 5 mM Tris- […]
HCl/NaCl buffer (pH 7.2) and the quenching of the emission signals at 350 nm (λex = 295 […]
nm) were recorded. The emission intensity of BSA decreases gradually on increasing the […]
complex concentration. The quenching constant (KBSA) has been determined quantitatively by […]
using Stern-Volmer equation. Stern-Volmer plots of I0/I vs. [complex] were made using the […]
corrected fluorescence data taking into account the effect of dilution. Linear fit of the data […]
Where I0 and I are the emission intensities of BSA in the absence and in the presence of […]
quencher of concentration [Q], gave the quenching constant (K BSA) using Origin Pro 8.5 […]
software. kq is the quenching rate constant, τ0 is the average lifetime of the tryptophan in BSA […]
without quencher reported as 1 x 10-8 sec. The binding propensity of the quenchers with […]
respective serum proteins were expressed by Scatchard equation. For such static quenching […]
interaction, the binding constant (K) and the number of binding sites (n) can be determined […]
according to the Scatchard equation: […]
The linear fitting of the log (I0-I)/I vs. log [Q] plot gives values of n and K from slope and […]
2.8. Stability study, Solubility study, metabolic stability study, Caco-2 permeability study
%Nominal = Mean of calculated concentration of test samples ×100 ….(7) […]
Calculated concentration from calibration curve
CL = k × volume of reaction mixture (mL) … (8) […]
intr protein content (mg)

[1] = Metabolic stability in rat liver microsomes; format: in vitro ADME; details: for % Metabolism in 30 min: 0.5 μM, 0.5 mg ml^−1 protein, NADPH, 37 °C; for half-life at 0.5 μM: rat, liver microsomes
Method: The in vitro metabolic rate of 7g was determined in liver microsomes and the intrinsic clearance (CLintr) was estimated. The study was conducted at 0.5 μM substrate concentration and microsomal protein concentration of 0.5 mg ml^−1. Metabolic stability study in the presence of microsomes and cofactor NADPH was performed at 37 °C, 60 rpm for 30 min time duration. NADPH free control incubation was performed simultaneously for 30 min to understand if there are any non-enzymatic metabolism related issues. […] Intrinsic clearance as given in Table 6, was calculated using eqn (8). ^†

In the case of `Clc1cc2nc(COc3ccccc3-c3nc4ccccc4s3)c(COc3ccccc3-c3nc4ccccc4s3)nc2cc1Cl` [Compound 7e], the “K sv, Stern–Volmer quenching constant” value (CT-DNA; EtBr–DNA fluorescence quenching) is reported as 5500 M⁻¹, the “[7e]50, concentration at 50% fluorescence quenching of DNA-bound ethidium bromide” value (CT-DNA; [DNA] = 120 μM, [EtBr] = 8 μM, Tris HCl/NaCl buffer pH 7.2) is reported as 140 µM and the “K app, apparent DNA binding constant” value (CT-DNA; competitive displacement of EtBr, fluorescence) is reported as 570000 M⁻¹. For the same compound, the “K BSA, Stern–Volmer quenching constant” value (BSA) was 10200 M⁻¹, the “K q, quenching rate constant” value (BSA) was 1.02e+12 M⁻¹ s⁻¹ and the “quenching of BSA fluorescence” value (BSA; BSA 3 μM titrated with 10–100 μM drug, excitation 280 nm) was “more than 50%”. The “n, number of binding sites” value (BSA; Scatchard equation) was 1.87 and the Kd (BSA; Scatchard equation, read-out: K, binding constant with BSA (converted)) was 3.82 mM.
For `COc1ccc2nc(COc3ccccc3-c3nc4ccccc4s3)c(COc3ccccc3-c3nc4ccccc4s3)nc2c1` [Compound 7g, 2,2'-((((6-methoxyquinoxaline-2,3-diyl)bis(methylene))bis(oxy))bis(2,1-phenylene))bis(benzo[d]thiazole)], the CLint ([1]; RLM set 1) was 4 μl per min per mg protein, the “% Metabolism in 30 min” value ([1]; RLM set 1) was 12% and the CLint ([1]; RLM set 2) was 14 μl per min per mg protein. For the same compound, the “% Metabolism in 30 min” value ([1]; RLM set 2) was 19%, the half-life at 0.5 μM ([1]; RLM set 1) was 5.85 h and the half-life at 0.5 μM ([1]; RLM set 2) was 1.69 h.
